US20060167075A1, “Modulators of FAAH” (priority 2005, published 2006)

Tests used:
FAAH [1] = target: T1, FAAH (Rattus norvegicus, UniProt P97612); experiment: FAAH activity in rat brain membrane (RBM) homogenate, 3H-anandamide hydrolysis; type: biochemical; details: 10 min at 37° C., pH 6.5
T1 construct: FAAH activity was assayed in the respective homogenates (Rat brain or Human brain); from tissue; host or cells: rat brain membrane homogenate (Charles River CD strain)
T1 sequence (P97612 1-579): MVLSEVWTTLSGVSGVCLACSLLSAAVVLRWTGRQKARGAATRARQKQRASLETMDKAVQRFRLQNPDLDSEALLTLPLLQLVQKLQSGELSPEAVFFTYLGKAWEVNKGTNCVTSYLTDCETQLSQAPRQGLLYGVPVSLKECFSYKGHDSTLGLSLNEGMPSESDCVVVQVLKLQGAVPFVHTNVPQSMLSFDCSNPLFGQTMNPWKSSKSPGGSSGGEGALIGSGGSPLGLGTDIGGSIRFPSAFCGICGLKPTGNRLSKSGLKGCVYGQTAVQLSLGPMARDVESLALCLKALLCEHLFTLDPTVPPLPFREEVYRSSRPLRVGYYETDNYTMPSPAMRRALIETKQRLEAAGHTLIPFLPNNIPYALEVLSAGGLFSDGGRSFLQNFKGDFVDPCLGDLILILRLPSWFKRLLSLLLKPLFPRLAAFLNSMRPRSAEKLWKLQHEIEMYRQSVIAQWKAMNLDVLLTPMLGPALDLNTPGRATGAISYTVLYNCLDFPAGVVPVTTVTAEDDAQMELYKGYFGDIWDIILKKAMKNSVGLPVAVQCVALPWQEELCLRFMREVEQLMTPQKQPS
Experimental: (§1) To assess FAAH inhibition, compounds were tested in an assay using rat brain microsomes and an assay using human brain microsomes using the methods described below.
Nine adult rats (Charles River CD strain, female, 200 g) were anaesthetized with isofluorane and rapidly decapitated. Each brain was quickly removed and chilled in tubes (3 brains per tube) on ice. Total wet weight of the 9 brains was ˜18 g. 25 mL of homogenization buffer (20 mM HEPES buffer, pH 7.0, with 1 mM MgCl2) was added to each tube. The brains were homogenized on ice for 1 minute using an Omni GLH homogenizer (Omni International, Marietta, Ga.). The homogenates were transferred to three centrifuge tubes and centrifuged at 36,500 g for 20 minutes at 4° C. The supernatant was discarded and each pellet was re-suspended in 25 ml homogenization buffer. The resuspended material was again centrifuged (36,500g, 20 min at 4° C.). The pellets were combined by resuspension in 10 mL of homogenization buffer and incubated in a 37° C. water bath for 15 min. The tube was then placed on ice for 5 min followed by centrifugation at 36,500 g for 20 minutes at 4° C. The supernatant was discarded and the membrane pellet was then resuspended in 40 mL of resuspension buffer (50 mM Tris-HCl buffer, pH 7.4, containing 1 mM EDTA and 3 mM MgCl2). A Bradford Protein assay was performed to determine protein concentration. […]
(§2) Samples were placed on ice to terminate the reactions. […] Radioactivity (corresponding to FAAH-catalyzed breakdown of ^3H-anandamide) found in aliquots (0.2 ml) of the aqueous phase was determined by liquid scintillation counting with quench correction.
(§3) The method of Wilson et al. was modified by acidifying the reaction mixtures by the addition of 10 μl of sodium phosphate solution [0.5M (pH 2.0)] after reactions were incubated at 37° C. for 10 min and chilled on ice. […] The columns were centrifuged and the eluate was counted as described by Wilson et al.

FAAH [2] = target: T2, FAAH (Homo sapiens, UniProt O00519); experiment: FAAH activity in human brain membrane (HBM) homogenate, 3H-anandamide hydrolysis; type: biochemical; details: 10 min at 37° C., pH 6.5
T2 construct: FAAH activity was assayed in the respective homogenates (Rat brain or Human brain); tissue Analytical Biological Services (ABS), Inc; host or cells: human brain cortex membrane homogenate, pooled from three donors
T2 sequence (O00519 1-579): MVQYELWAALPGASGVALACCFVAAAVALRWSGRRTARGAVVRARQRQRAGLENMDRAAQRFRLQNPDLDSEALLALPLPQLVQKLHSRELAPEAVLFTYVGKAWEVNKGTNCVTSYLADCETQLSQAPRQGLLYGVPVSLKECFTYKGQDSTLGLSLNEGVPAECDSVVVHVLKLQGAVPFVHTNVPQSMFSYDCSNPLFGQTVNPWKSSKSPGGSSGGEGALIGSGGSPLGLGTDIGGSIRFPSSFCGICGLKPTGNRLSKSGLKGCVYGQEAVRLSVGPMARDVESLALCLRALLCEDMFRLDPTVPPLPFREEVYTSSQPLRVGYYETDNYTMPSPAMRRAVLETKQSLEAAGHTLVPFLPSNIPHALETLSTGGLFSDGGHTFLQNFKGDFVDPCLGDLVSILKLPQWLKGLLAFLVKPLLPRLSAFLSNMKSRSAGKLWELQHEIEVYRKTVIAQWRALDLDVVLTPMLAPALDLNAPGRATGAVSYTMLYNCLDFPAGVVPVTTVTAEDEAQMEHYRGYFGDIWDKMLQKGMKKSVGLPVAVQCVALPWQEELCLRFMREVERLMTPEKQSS
Experimental: as §1
10 g of normal human brain cortex tissue pooled from three donors was purchased from Analytical Biological Services (ABS), Inc. (Wilmington, Del.). The tissue had been collected by ABS, Inc. ˜4 hrs post mortem and was flash frozen and stored at −80° C. The brain tissue was thawed and transferred to a large ceramic mortar on ice. 50 mL of ice-cold homogenization buffer (20 mM HEPES buffer, pH 7.0, with 1 mM MgCl2) was added to the mortar and the tissue was homogenized with a pestle. The homogenate was centrifuged at 36,500 g for 20 minutes at 4° C. The supernatants were discarded and the pellets re-suspended in homogenization buffer and centrifuged as before. The supernatants were again discarded and the pellets were re-suspended in 30 ml homogenization buffer and incubated in a 37° C. water bath for 20 min. The homogenate was then centrifuged as before. The supernatant was discarded and the membrane pellets were re-suspended in 30 ml resuspension buffer (50 mM Tris-HCl buffer, pH 7.4, containing 1 mM EDTA and 3 mM MgCl2). A Bradford Protein assay was performed to determine protein concentration. The protein suspension was aliquotted into screw cap Cryo tubes each containing ˜200 μL of suspension, flash frozen in liquid nitrogen and stored at −80° C. until used for the assay.
as §2, §3

IC50 (FAAH [1])	IC50 (FAAH [2])	SMILES
167 µM		Cc1ccc(-c2cc(C(F)(F)F)nn2-c2ccc(S(N)(=O)=O)cc2)cc1 [Celecoxib, 4-[[5-(p-tolyl)-3-(trifluoromethyl)-1H-pyrazol-1-yl]]benzenesulfonamide]
	96 µM	COc1ccc2c(c1)c(CC(=O)O)c(C)n2C(=O)c1ccc(Cl)cc1 [Indomethacin]
452 µM	198 µM	CS(=O)(=O)c1ccc(C2=C(c3ccccc3)C(=O)OC2)cc1 [Rofecoxib]
280 µM	41 µM	Cc1onc(-c2ccccc2)c1-c1ccc(S(N)(=O)=O)cc1 [Valdecoxib, 4-(5-methyl-3-phenyl-isoxazol-4-yl)benzenesulfonamide]
